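1) Cells in 96-well plates. 2) Compound, 48 h, 5 concentrations. 3) Linear interpolation between surrounding doses. 4) Unreached endpoint = highest concentration. The concentration for 50% growth inhibition is given as GI50.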 The source made the active and inactive calls. Rule as the data show it: active = GI50 up to about 1.1 µM and inactive = higher.
Legend:
Assay in all cases: growth of human tumour cells (NCI), 48 h
[1] = tested on: NCI-H226
[2] = tested on: DU-145
[3] = tested on: RPMI-8226
[4] = tested on: SW-620
[5] = tested on: OVCAR-4
[6] = tested on: SK-MEL-5
[7] = tested on: SF-295
[8] = tested on: NCI-H522
[9] = tested on: SNB-75
[10] = tested on: HCC 2998
[11] = tested on: UACC-62
[12] = tested on: 786-0
[13] = tested on: OVCAR-8
[14] = tested on: SN12C
[15] = tested on: HCT-116
[16] = tested on: MDA-MB-231
[17] = tested on: PC-3
[18] = tested on: SR
[19] = tested on: NCI/ADR-RES
[20] = tested on: HL-60

| SMILES | GI50 [1] | GI50 [2] | GI50 [3] | GI50 [4] | GI50 [5] | GI50 [6] | GI50 [7] | GI50 [8] | GI50 [9] | GI50 [10] | GI50 [11] | GI50 [12] | GI50 [13] | GI50 [14] | GI50 [15] | GI50 [16] | GI50 [17] | GI50 [18] | GI50 [19] | GI50 [20] |
| --- | --- | --- | --- | --- | --- | --- | --- | --- | --- | --- | --- | --- | --- | --- | --- | --- | --- | --- | --- | --- |
| O=C(/C=C/c1ccccc1)OCC1=C[C@@H](O)[C@@H]2C=CO[C@@H](OC3OC(CO)C(O)C(O)C3O)[C@H]12 (stereo partly drawn) | > 100 µM (inactive) | > 100 µM (inactive) | > 100 µM (inactive) | > 100 µM (inactive) | 67.6 µM (inactive) | > 100 µM (inactive) | > 100 µM (inactive) | > 100 µM (inactive) | > 100 µM (inactive) | > 100 µM (inactive) | > 100 µM (inactive) | > 100 µM (inactive) | > 100 µM (inactive) | > 100 µM (inactive) | > 100 µM (inactive) | > 100 µM (inactive) | > 100 µM (inactive) | > 100 µM (inactive) | > 100 µM (inactive) | – |
| CC(C)(C)[Si](C)(C)OCC1OC(n2ccc(=O)[nH]c2=O)C(O[Si](C)(C)C(C)(C)C)[C@@]12O[C@H]2C(N)=O (stereo partly drawn) | 0.445 µM (active) | 4.03 µM (inactive) | 6.17 µM (inactive) | 6.01 µM (inactive) | 18.5 µM (inactive) | 4.06 µM (inactive) | 4.56 µM (inactive) | 2.22 µM (inactive) | 10.1 µM (inactive) | 11.9 µM (inactive) | 18.7 µM (inactive) | 5.11 µM (inactive) | 5.11 µM (inactive) | 13 µM (inactive) | 4.08 µM (inactive) | 4.61 µM (inactive) | 5.61 µM (inactive) | – | 8.57 µM (inactive) | 96.6 µM (inactive) |
| CC1=CC(=O)/C(=C/NC(N)=S)C(=O)O1 | > 100 µM (inactive) | > 100 µM (inactive) | – | > 100 µM (inactive) | > 100 µM (inactive) | 92 µM (inactive) | > 100 µM (inactive) | > 100 µM (inactive) | 48.1 µM (inactive) | > 100 µM (inactive) | > 100 µM (inactive) | > 100 µM (inactive) | > 100 µM (inactive) | > 100 µM (inactive) | > 100 µM (inactive) | > 100 µM (inactive) | > 100 µM (inactive) | – | > 100 µM (inactive) | 1.72 µM (inactive) |
| COc1ccc(C/C=C(\C)CCO)cc1 | – | > 100 µM (inactive) | 19.7 µM (inactive) | > 100 µM (inactive) | > 100 µM (inactive) | > 100 µM (inactive) | > 100 µM (inactive) | > 100 µM (inactive) | > 100 µM (inactive) | – | > 100 µM (inactive) | > 100 µM (inactive) | > 100 µM (inactive) | > 100 µM (inactive) | > 100 µM (inactive) | > 100 µM (inactive) | > 100 µM (inactive) | > 100 µM (inactive) | > 100 µM (inactive) | – |
| COc1ccc2c(c1O)-c1c(OC)c(OC)cc3c1[C@H](C2)[N+](C)(C)CC3 | > 100 µM (inactive) | > 100 µM (inactive) | > 100 µM (inactive) | > 100 µM (inactive) | > 100 µM (inactive) | > 100 µM (inactive) | > 100 µM (inactive) | > 100 µM (inactive) | > 100 µM (inactive) | > 100 µM (inactive) | > 100 µM (inactive) | > 100 µM (inactive) | > 100 µM (inactive) | > 100 µM (inactive) | > 100 µM (inactive) | > 100 µM (inactive) | > 100 µM (inactive) | – | > 100 µM (inactive) | > 100 µM (inactive) |
| COc1ccc(C2OC2C(=O)C23CC4CC(CC(C4)C2)C3)cc1 (stereo not drawn) | > 100 µM (inactive) | 90.8 µM (inactive) | 25.2 µM (inactive) | > 100 µM (inactive) | > 100 µM (inactive) | 77.8 µM (inactive) | 33.7 µM (inactive) | 45.5 µM (inactive) | > 10 µM (inactive) | 31 µM (inactive) | 10.4 µM (inactive) | 46.3 µM (inactive) | 38.3 µM (inactive) | 36.8 µM (inactive) | 58.6 µM (inactive) | 33 µM (inactive) | 31.9 µM (inactive) | – | > 100 µM (inactive) | 15.9 µM (inactive) |
| O=C(COc1ccc(OCC(=O)N2C(=O)CS/C2=N\c2ccccc2)cc1)N1C(=O)CS/C1=N\c1ccccc1 | 26.5 µM (inactive) | 30.8 µM (inactive) | 22.5 µM (inactive) | 47.9 µM (inactive) | 33.5 µM (inactive) | 11.6 µM (inactive) | 33.3 µM (inactive) | 11.1 µM (inactive) | 90.4 µM (inactive) | 14.9 µM (inactive) | 8.13 µM (inactive) | 19.2 µM (inactive) | – | 24.8 µM (inactive) | 10.6 µM (inactive) | 15.6 µM (inactive) | 14.8 µM (inactive) | – | 19.5 µM (inactive) | – |
| COC(=O)CNC(=O)/C=C/[C@H](O[Si](C)(C)C(C)(C)C)[C@H](/C=C/C(=O)NCC(=O)OC)O[Si](C)(C)C(C)(C)C | > 25 µM (inactive) | > 25 µM (inactive) | > 25 µM (inactive) | > 25 µM (inactive) | > 25 µM (inactive) | > 25 µM (inactive) | > 25 µM (inactive) | > 25 µM (inactive) | > 25 µM (inactive) | > 25 µM (inactive) | > 25 µM (inactive) | > 25 µM (inactive) | > 25 µM (inactive) | > 25 µM (inactive) | > 25 µM (inactive) | > 25 µM (inactive) | > 25 µM (inactive) | > 25 µM (inactive) | > 25 µM (inactive) | – |
| CC(C)(C)NC(=O)C12C3C4C1C1C2C3C41C(=O)NC(C)(C)C (stereo not drawn) | – | > 100 µM (inactive) | – | > 100 µM (inactive) | > 100 µM (inactive) | > 100 µM (inactive) | 80 µM (inactive) | > 100 µM (inactive) | – | > 100 µM (inactive) | > 100 µM (inactive) | > 100 µM (inactive) | > 100 µM (inactive) | > 100 µM (inactive) | > 100 µM (inactive) | > 100 µM (inactive) | > 100 µM (inactive) | 45.6 µM (inactive) | > 100 µM (inactive) | > 100 µM (inactive) |
| C=C(CO)[C@H]1Oc2ccc(C(C)=O)cc2[C@@H]1O | > 100 µM (inactive) | > 100 µM (inactive) | > 100 µM (inactive) | > 100 µM (inactive) | > 100 µM (inactive) | > 100 µM (inactive) | > 100 µM (inactive) | 88.7 µM (inactive) | 95.1 µM (inactive) | > 100 µM (inactive) | > 100 µM (inactive) | > 100 µM (inactive) | > 100 µM (inactive) | > 100 µM (inactive) | > 100 µM (inactive) | > 100 µM (inactive) | > 100 µM (inactive) | > 100 µM (inactive) | – | > 100 µM (inactive) |
| Cc1cc(C)nc(NC(=O)COc2ccc(Cl)cc2)c1 | > 100 µM (inactive) | > 100 µM (inactive) | 74.5 µM (inactive) | > 100 µM (inactive) | > 100 µM (inactive) | > 100 µM (inactive) | 84.9 µM (inactive) | 84.5 µM (inactive) | > 100 µM (inactive) | – | > 100 µM (inactive) | > 100 µM (inactive) | > 100 µM (inactive) | > 100 µM (inactive) | > 100 µM (inactive) | > 100 µM (inactive) | > 100 µM (inactive) | > 100 µM (inactive) | 66.4 µM (inactive) | – |
| C#CC[C@@H]1C(=O)N(Cc2ccc(OC)cc2)[C@@H](C(C)C)C(=O)N1Cc1ccc(OC)cc1 | 35.2 µM (inactive) | 29.5 µM (inactive) | – | 40.5 µM (inactive) | 74 µM (inactive) | 15.6 µM (inactive) | 54.2 µM (inactive) | 28 µM (inactive) | 24 µM (inactive) | 47.1 µM (inactive) | 25.2 µM (inactive) | 44.9 µM (inactive) | 46.1 µM (inactive) | 53 µM (inactive) | 28.1 µM (inactive) | 83.2 µM (inactive) | 24 µM (inactive) | – | 31.2 µM (inactive) | 3.66 µM (inactive) |
| COc1cc2c3c(c1OC)C(=O)C(=O)C1=C3N(CCC1)CC2 | – | 38 µM (inactive) | – | 32.4 µM (inactive) | 24.2 µM (inactive) | 33 µM (inactive) | 23.5 µM (inactive) | 19.7 µM (inactive) | – | 36.7 µM (inactive) | 18.1 µM (inactive) | 43.4 µM (inactive) | 21.5 µM (inactive) | 32.4 µM (inactive) | 18.5 µM (inactive) | 31.3 µM (inactive) | 31.5 µM (inactive) | 18.5 µM (inactive) | 56 µM (inactive) | 19.1 µM (inactive) |
| C=CC(C)(C)C(=C)C(=O)N(C)c1ccccc1I | 95.7 µM (inactive) | > 100 µM (inactive) | > 100 µM (inactive) | > 100 µM (inactive) | 48.3 µM (inactive) | 72.8 µM (inactive) | > 100 µM (inactive) | > 100 µM (inactive) | > 100 µM (inactive) | > 100 µM (inactive) | > 100 µM (inactive) | > 100 µM (inactive) | > 100 µM (inactive) | > 100 µM (inactive) | 84.9 µM (inactive) | > 100 µM (inactive) | > 100 µM (inactive) | > 100 µM (inactive) | > 100 µM (inactive) | – |
| CN(C)CCCN1C(=S)N(CCCN(C)C)c2c3ccccc3nc3c([N+](=O)[O-])ccc1c23 | 8.02 µM (inactive) | 6.44 µM (inactive) | 6.81 µM (inactive) | 3.05 µM (inactive) | 11.5 µM (inactive) | 4.55 µM (inactive) | 8.38 µM (inactive) | 1.77 µM (inactive) | 7.46 µM (inactive) | 4.21 µM (inactive) | 9.95 µM (inactive) | 4.82 µM (inactive) | 5.31 µM (inactive) | 4.15 µM (inactive) | 3.71 µM (inactive) | 10.4 µM (inactive) | 5.83 µM (inactive) | – | 6.95 µM (inactive) | – |

From ChEMBL document CHEMBL1201862, “PubChem BioAssay data set” (2004)
